Test results from US11787781B2, “Inhibiting ataxia telangiectasia and RAD3-related protein (ATR)” (Celator Pharmaceuticals, Inc., priority 2016, dated 2023).
Like-named read-outs stand apart in the source and are kept apart here.

Key:
[1] = test system: panel of lung cancer cell lines; experiment: […]-GLO cell viability, free drug monotherapy and combination screening; assay type: cell-based
Experimental: In vitro efficacy study was done using […]-GLO Luminescent Cell Viability Assay (Promega) with Corning Cat #3707 384 well White Clear bottom plates. Cells were plated (1000 cells/well) in 384 well format and allowed to incubate at 37° C. for 24 hours. Monotherapy drugs were added at the 24 hr time point and then allowed to incubate at 37° C. for 24 hours. At the 48 hr time point the drugs in media were removed, washed with PBS, and fresh media was added. Cells were then allowed to incubate at 37° C. for 72 hours. […]
At the 120 hr time point media was removed and […]-GLO (CTG) reagent was added (1:1 ratio with PBS). Plates were read using a luminometer (Envision Multilabel reader). […]
Data was analyzed using an in-house algorithm developed using Matlab (Mathworks, Natick Mass.). […]
Data quality control was performed to ensure that the concentration range is optimal according to these rules: (1) if the lowest concentration kills more than 70% of the cells the concentration range is deemed too potent (2) if the highest concentration kills less than 30% of the cells, the concentration range is deemed low or the cell line is too resistant. Additionally, goodness of the fit was evaluated using R^2 and R^2<0.9 is flagged as a bad fit.

U2OS cells = experiment: Cell death and growth assay, U2OS cells; assay type: cell-based; details: set concentrations, in combination with Gemcitabine
Experimental: U20S and all other cells were grown in (RPMI) supplemented with 10% fetal bovine serum (FBS) and antibiotics. Imaging and time-lapse compatible NucLight red cell lines were generated as recommend by Essen Bioscience Inc. using lentiviral particles, infection and puromycin selection protocols.
The results were compared back to a prediction of cell growth and death with the combination of the two compounds (FIG. 18A).
In all cases, relative cell proliferation is reduced with the combinations compared to the drugs alone (FIG. 21B-C).

TNIK = TNIK (Homo sapiens (Human), UniProt Q9UKE5); experiment: Broad kinase panel screening; assay type: biochemical
Text: (§1) Example 16: Broad Kinase Panel Screening (359)
(§2) Major hits out of 359 were: ALK, ARK, c-MER, CLK1, DYRK, GSK3a, GSK3b, FLT2, FLT3, MLK1, SIK2, TNIK, and YSK4.

MLK3/MAP3K11 = MLK3/MAP3K11 (Homo sapiens (Human), UniProt Q16584); experiment: Broad kinase panel screening; assay type: biochemical
Sequence of MLK3/MAP3K11 (Q16584 whole entry): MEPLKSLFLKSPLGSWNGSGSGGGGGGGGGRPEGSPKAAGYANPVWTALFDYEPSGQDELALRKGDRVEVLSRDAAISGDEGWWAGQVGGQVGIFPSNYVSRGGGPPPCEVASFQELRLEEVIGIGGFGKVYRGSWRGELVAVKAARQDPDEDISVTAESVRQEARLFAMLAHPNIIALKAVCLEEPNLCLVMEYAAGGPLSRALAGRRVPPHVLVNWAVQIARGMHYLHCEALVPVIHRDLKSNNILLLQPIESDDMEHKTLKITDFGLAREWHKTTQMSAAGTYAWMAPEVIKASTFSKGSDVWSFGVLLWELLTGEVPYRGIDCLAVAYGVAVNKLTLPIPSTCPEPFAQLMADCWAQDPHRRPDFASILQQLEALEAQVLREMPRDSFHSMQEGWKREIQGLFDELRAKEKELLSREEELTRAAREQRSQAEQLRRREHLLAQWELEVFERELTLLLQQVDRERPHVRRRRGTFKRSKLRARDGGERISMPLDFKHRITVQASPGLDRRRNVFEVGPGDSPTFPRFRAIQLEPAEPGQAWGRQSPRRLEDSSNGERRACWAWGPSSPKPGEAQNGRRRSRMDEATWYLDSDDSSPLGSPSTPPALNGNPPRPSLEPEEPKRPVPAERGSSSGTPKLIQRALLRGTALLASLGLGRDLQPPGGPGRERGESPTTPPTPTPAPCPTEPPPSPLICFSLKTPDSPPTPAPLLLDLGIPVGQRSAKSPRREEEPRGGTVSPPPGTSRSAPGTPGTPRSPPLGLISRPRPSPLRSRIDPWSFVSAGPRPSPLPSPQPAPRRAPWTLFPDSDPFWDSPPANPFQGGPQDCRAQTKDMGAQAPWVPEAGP
Text: as §1, §2

DDR1 = DDR1 (Homo sapiens (Human), UniProt Q08345); experiment: Broad kinase panel screening; assay type: biochemical
Sequence of DDR1 (Q08345 19-913, species assumed): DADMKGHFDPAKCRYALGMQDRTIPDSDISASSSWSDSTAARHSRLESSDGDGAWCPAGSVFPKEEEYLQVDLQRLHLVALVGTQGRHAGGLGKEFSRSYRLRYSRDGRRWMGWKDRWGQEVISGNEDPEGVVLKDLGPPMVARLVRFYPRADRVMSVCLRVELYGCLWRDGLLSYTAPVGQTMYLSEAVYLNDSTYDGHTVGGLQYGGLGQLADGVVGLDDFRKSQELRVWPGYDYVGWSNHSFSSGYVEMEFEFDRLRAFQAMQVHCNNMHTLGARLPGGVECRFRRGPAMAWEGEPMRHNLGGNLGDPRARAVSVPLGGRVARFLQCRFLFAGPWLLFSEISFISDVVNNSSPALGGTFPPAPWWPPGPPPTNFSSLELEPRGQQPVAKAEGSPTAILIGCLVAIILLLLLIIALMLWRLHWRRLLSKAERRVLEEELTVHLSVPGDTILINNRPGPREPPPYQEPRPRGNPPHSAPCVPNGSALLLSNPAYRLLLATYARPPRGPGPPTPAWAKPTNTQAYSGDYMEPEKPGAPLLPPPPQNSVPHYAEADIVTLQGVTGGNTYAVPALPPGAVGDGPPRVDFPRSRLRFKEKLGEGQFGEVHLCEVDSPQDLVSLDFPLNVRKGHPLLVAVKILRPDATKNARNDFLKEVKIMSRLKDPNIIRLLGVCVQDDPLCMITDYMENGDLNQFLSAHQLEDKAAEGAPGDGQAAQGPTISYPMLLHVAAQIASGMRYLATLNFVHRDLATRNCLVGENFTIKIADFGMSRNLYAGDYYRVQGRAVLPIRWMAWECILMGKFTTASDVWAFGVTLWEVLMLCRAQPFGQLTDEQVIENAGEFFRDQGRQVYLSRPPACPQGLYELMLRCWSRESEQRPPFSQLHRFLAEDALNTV
Text: as §1, §2

YSK4/MAP3K19 = YSK4/MAP3K19 (Homo sapiens (Human), UniProt Q56UN5); experiment: Broad kinase panel screening; assay type: biochemical
Text: as §1, §2

SIK2 = SIK2 (Homo sapiens (Human), UniProt Q9H0K1); experiment: Broad kinase panel screening; assay type: biochemical
Sequence of SIK2 (Q9H0K1 whole entry, species assumed): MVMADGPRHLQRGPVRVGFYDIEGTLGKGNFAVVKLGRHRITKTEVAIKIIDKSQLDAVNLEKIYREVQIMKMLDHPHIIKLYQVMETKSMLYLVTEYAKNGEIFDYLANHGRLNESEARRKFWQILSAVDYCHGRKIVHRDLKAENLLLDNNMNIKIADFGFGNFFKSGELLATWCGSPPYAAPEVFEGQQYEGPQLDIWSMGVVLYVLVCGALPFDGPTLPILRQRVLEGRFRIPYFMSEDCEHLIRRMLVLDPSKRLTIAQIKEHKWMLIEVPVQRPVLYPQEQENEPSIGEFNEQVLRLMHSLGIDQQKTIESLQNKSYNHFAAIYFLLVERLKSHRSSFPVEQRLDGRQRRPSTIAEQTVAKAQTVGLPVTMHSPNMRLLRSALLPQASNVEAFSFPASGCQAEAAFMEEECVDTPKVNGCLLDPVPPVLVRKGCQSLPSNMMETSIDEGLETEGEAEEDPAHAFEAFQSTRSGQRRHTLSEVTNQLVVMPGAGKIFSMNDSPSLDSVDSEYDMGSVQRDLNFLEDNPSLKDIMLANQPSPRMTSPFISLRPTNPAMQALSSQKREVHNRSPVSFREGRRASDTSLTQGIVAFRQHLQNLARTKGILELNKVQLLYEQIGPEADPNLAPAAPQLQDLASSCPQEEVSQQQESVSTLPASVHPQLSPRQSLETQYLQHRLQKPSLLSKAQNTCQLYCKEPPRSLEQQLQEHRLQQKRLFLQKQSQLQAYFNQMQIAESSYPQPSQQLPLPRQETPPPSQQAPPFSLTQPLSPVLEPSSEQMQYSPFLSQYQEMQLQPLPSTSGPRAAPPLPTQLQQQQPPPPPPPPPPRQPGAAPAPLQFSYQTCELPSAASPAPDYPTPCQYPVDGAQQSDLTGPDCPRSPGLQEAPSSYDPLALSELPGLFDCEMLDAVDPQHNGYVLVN
Text: as §1, §2

DYRK2 = DYRK2 (Homo sapiens (Human), UniProt Q92630); experiment: Broad kinase panel screening; assay type: biochemical
Text: as §1, §2

ALK2/ACVR1 = ALK2/ACVR1 (Homo sapiens (Human), UniProt Q04771); experiment: Broad kinase panel screening; assay type: biochemical
Sequence of ALK2/ACVR1 (Q04771 21-509): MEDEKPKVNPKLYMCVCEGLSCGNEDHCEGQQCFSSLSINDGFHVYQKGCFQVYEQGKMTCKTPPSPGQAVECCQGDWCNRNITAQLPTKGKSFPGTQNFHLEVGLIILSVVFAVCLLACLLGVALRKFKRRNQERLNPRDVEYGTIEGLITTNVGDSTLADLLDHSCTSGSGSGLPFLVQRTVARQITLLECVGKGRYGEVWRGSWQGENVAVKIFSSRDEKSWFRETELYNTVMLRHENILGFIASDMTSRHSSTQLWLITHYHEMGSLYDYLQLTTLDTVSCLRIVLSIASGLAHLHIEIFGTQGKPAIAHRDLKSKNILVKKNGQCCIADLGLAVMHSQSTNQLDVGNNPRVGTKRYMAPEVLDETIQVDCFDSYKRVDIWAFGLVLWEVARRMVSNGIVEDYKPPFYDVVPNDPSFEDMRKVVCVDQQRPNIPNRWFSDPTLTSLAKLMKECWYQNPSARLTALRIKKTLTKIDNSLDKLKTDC
Text: as §1, §2

CLK1 = CLK1 (Homo sapiens (Human), UniProt P49759); experiment: Broad kinase panel screening; assay type: biochemical
Sequence of CLK1 (P49759 whole entry): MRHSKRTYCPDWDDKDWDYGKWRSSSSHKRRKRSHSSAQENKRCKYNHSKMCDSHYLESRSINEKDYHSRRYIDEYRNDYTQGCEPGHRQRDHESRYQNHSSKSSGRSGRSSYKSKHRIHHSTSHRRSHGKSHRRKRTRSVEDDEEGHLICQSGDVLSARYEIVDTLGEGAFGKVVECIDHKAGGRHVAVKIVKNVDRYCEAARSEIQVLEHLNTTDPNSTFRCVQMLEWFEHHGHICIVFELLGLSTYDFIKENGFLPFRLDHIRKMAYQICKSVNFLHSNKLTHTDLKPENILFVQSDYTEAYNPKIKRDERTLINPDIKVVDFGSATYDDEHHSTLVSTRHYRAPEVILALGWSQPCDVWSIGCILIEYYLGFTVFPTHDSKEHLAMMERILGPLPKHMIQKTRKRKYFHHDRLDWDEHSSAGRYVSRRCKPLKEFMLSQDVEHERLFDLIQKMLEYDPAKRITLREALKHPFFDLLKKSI
Text: as §1, §2

PKCmu/PRKD1 = PKCmu/PRKD1 (Homo sapiens (Human), UniProt Q15139); experiment: Broad kinase panel screening; assay type: biochemical
Text: as §1, §2

MLK1/MAP3K9 = MLK1/MAP3K9 (Homo sapiens (Human), UniProt P80192); experiment: Broad kinase panel screening; assay type: biochemical
Text: as §1, §2

GSK3b = GSK3b (Homo sapiens (Human), UniProt P49841); experiment: Broad kinase panel screening; assay type: biochemical
Sequence of GSK3b (P49841 whole entry, species assumed): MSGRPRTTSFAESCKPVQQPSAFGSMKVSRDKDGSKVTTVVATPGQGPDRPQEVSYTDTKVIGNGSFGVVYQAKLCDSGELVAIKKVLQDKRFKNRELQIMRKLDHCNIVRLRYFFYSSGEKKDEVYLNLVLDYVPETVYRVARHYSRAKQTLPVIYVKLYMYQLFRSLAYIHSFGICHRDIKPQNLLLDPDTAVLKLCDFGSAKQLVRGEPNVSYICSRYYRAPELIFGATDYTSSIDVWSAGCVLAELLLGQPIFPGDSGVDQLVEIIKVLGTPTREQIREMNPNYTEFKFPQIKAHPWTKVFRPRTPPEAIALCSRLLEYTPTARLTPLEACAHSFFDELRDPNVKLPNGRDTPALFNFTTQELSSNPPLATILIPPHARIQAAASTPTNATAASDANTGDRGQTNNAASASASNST
Text: as §1, §2

RET = RET (Homo sapiens (Human), UniProt P07949); experiment: Broad kinase panel screening; assay type: biochemical
Text: as §1, §2

PKD2/PRKD2 = PKD2/PRKD2 (Homo sapiens (Human), UniProt Q9BZL6); experiment: Broad kinase panel screening; assay type: biochemical
Text: as §1, §2

MLK2/MAP3K10 = MLK2/MAP3K10 (Homo sapiens (Human), UniProt Q02779); experiment: Broad kinase panel screening; assay type: biochemical
Text: as §1, §2

GSK3a = GSK3a (Homo sapiens (Human), UniProt P49840); experiment: Broad kinase panel screening; assay type: biochemical
Sequence of GSK3a (P49840 whole entry, species assumed): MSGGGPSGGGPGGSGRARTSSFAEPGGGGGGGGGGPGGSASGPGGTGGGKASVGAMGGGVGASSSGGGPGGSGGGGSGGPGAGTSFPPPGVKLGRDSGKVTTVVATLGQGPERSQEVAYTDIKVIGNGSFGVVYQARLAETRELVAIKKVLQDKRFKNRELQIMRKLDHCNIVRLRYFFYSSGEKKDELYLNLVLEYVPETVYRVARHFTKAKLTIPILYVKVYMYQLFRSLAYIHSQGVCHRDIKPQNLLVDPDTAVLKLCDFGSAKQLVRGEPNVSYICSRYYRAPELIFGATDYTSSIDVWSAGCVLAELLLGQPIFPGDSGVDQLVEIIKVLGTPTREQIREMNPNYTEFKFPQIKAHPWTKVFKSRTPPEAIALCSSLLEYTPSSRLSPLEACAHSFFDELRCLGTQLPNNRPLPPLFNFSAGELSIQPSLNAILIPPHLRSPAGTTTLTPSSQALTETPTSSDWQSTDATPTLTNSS
Text: as §1, §2

ARK5/NUAK1 = ARK5/NUAK1 (Homo sapiens (Human), UniProt O60285); experiment: Broad kinase panel screening; assay type: biochemical
Text: as §1, §2

ALK1/ACVRL1 = ALK1/ACVRL1 (Homo sapiens (Human), UniProt P37023); experiment: Broad kinase panel screening; assay type: biochemical
Text: as §1, §2

PIM1 = PIM1 (Homo sapiens (Human), UniProt P11309); experiment: Broad kinase panel screening; assay type: biochemical
Sequence of PIM1 (P11309 whole entry, species assumed): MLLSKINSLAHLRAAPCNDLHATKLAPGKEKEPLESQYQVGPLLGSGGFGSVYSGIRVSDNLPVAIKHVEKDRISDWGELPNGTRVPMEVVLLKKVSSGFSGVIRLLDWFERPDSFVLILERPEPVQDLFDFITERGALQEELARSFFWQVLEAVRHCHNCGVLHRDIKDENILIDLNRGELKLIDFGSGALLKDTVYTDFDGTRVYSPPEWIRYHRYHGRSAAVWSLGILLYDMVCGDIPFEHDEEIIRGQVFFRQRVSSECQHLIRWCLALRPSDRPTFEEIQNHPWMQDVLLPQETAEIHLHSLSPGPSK
Text: as §1, §2

CLK4 = CLK4 (Homo sapiens (Human), UniProt Q9HAZ1); experiment: Broad kinase panel screening; assay type: biochemical
Text: as §1, §2

FLT4/VEGFR3 = FLT4/VEGFR3 (Homo sapiens (Human), UniProt P35916); experiment: Broad kinase panel screening; assay type: biochemical
Text: as §1, §2

pKa = assay type: physicochemical; details: method not stated
SUM149 cells = experiment: Cell cycle stage profile, SUM149 cells; assay type: cell-based; details: 24 hours after addition of SN38 and ATR inhibitor
ATM(h) = ATM(h) (Homo sapiens (Human), UniProt Q13315); experiment: ATM activity, […] KINASEPROFILER; assay type: biochemical; details: estimated IC50
Text: Estimated IC50 values are as follows (obtained using […] KINASEPROFILER): […]

CN(C)CCC1CCN(CCS(=O)(=O)c2ccc(-c3cnc(N)c(C(=O)Nc4ccccc4)n3)cc2)CC1 [Compound 5, 3-amino-6-(4-((2-(4-(2-(dimethylamino)ethyl)piperidin-1-yl)ethyl)sulfonyl)phenyl)-N-phenylpyrazine-2-carboxamide]
potency (IC50) of chemotherapeutic agent combined with ATR inhibitor, vs Compound 6 ([1]; 1 μg/ml ATR inhibitor with Carboplatin, Gemcitabine or Compound B): more potent
monotherapy cell kill IC50, folds lower than Compound 6 ([1]; monotherapy, 24 h exposure): ~3 folds
relative cell proliferation vs the drugs alone (U2OS cells): reduced
IC50 (TNIK): 110 nM
IC50 (MLK3/MAP3K11; read-out: IC50 nM): 5.9 nM
IC50 (MLK3/MAP3K11; read-out: IC50): 5.9 nM
IC50 (DDR1): 191 nM
IC50 (YSK4/MAP3K19): 29.2 nM
IC50 (SIK2): 149 nM
IC50 (DYRK2): 71.8 nM
IC50 (ALK2/ACVR1): 16.6 nM
IC50 (CLK1): 134 nM
IC50 (PKCmu/PRKD1): 134 nM
IC50 (MLK1/MAP3K9): 11.3 nM
IC50 (GSK3b; read-out: IC50 nM): 63 nM
IC50 (GSK3b; read-out: IC50): 63 nM
IC50 (RET): 77.4 nM
IC50 (PKD2/PRKD2): 157 nM
IC50 (MLK2/MAP3K10): 9.58 nM
IC50 (GSK3a; read-out: IC50 nM): 5.73 nM
IC50 (GSK3a; read-out: IC50): 5.73 nM
IC50 (ARK5/NUAK1): 16.8 nM
IC50 (ALK1/ACVRL1): 35.7 nM
IC50 (PIM1; read-out: IC50 nM): 72.6 nM
IC50 (PIM1; read-out: IC50): 72.6 nM
IC50 (CLK4): 88.6 nM
IC50 (FLT4/VEGFR3): 63.4 nM
pKa (pKa): 10
cell cycle stage profile vs controls (SUM149 cells): larger percentage of cells are arrested in G2 phase
IC50 (ATM(h)): > 10000 nM
